According to patent US20100240580A1, “AZOLOARINE DERIVATIVES, METHOD FOR THE PRODUCTION THEREOF, PHARMACEUTICALS CONTAINING THESE COMPOUNDS AND THE USE THEREOF” (SANOFI-AVENTIS, priority 2007, published 2010):

target: T1, SCD1 (Rattus norvegicus, UniProt P07308); experiment: stearoyl-CoA desaturase (SCD1) activity, thin-layer chromatography assay with rat liver microsomes; format: biochemical; conditions: compound at 10 μM, [1-14C]-stearic acid, 37° C., 1 h
T1 construct: The resuspended microsome fraction was stored at −80° C; from tissue; host or cells: liver microsomes of male Wistar rats fed a carbohydrate-rich, low-fat diet
T1 sequence (P07308 1-358): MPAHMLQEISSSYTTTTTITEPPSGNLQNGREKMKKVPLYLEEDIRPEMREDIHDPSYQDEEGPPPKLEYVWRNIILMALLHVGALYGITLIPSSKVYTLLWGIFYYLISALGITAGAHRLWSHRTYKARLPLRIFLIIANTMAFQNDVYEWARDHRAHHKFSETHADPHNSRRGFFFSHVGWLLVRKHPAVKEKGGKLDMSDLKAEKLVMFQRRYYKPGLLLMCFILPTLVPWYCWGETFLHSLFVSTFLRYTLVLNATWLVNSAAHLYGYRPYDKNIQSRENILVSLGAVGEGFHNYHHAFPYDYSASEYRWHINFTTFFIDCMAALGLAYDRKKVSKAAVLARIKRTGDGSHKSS
Method: The activity of the compounds of the invention of the formula I was investigated in the following assay system with microsomal enzymes:
The livers of male Wistar rats which (to induce SCD1 expression) have been fed with a carbohydrate-rich, low-fat diet were homogenized with a Potter tissue homogenizer and differential centrifugation in a buffer which contained 250 mM sucrose and 5 mM HEPES (pH 7.0). The resuspended microsome fraction was stored at −80° C. The stearoyl-CoA desaturase activity was determined in a thin-layer chromatography assay with […] stearic acid. Stated briefly, the respective compounds of the invention (in DMSO in a final concentration of 1% [v/v]) were incubated with 15 μg of the rat liver microsomes in 200 μl of assay buffer (6 mM MgCl2, 250 mM sucrose, 150 mM KCl, 40 mM NaF, 100 mM Na2HPO4 (pH 7.4), 1.3 mM ATP, 1.5 mM reduced glutathione, 60 μM CoA, 0.33 mM nicotinamide and 0.94 mM NADH) at room temperature for 10 min. 0.5 μCi of [1-^14C]-stearic acid (55 mCi/mmol) was added, and the mixture was incubated at 37° C. for 1 h. The radiolabeled fatty acids were then hydrolyzed with 2.5 M KOH/MeOH:H2O (4:1) at 65° C. for 4 h, protonated with 280 μl of formic acid and extracted with 500 μl of hexane. The TLC plates were immersed in 10% AgNO3 and heat-activated before use. 150 μl of the hexane phase were put on the plates, and the TLC plates were developed in buffer (chloroform:methanol:acetic acid:water [90:8:1:0.8]) and dried. The plates were read in a PhosphoImager to quantify the SCD1 activity.
The skilled person is able to modify this assay to determine the inhibition of stearoyl-CoA desaturase activity in various respects.

Compound | % Inhibition (10 μM)
O=C(NCc1nccs1)c1ccc2nc(-c3ccc(Oc4ccccc4)cc3)[nH]c2c1 [Example 9, 2-(4-Phenoxyphenyl)-3H-benzimidazole-5-(thiazol-2-ylmethyl)carboxamide] | 29%
O=C(NCc1cccs1)c1ccc2nc(-c3ccc(C(=O)c4ccccc4C(F)(F)F)cc3)[nH]c2c1 [Example 19, 2-[4-(2-Trifluoromethylbenzoyl)phenyl]-3H-benzimidazole-5-(thiophen-2-ylmethyl)-carboxamide] | 100%
CC(C)CCNC(=O)c1ccc2nc(-c3ccc(Oc4ccccc4Cl)cc3)[nH]c2c1 [Example 13, 2-[4-(2-Chlorophenoxy)phenyl]-3H-benzoimidazole-5-(3-methylbutyl)carboxamide] | 58%
O=C(NCc1nccs1)c1ccc2nc(-c3ccc(Oc4ccccc4C(F)(F)F)cc3)[nH]c2c1 [Example 25, 2-[4-(2-Trifluoromethylphenoxy)phenyl]-3H-benzimidazole-5-(thiazol-2-ylmethyl)carboxamide] | 100%
O=C(NCCC1CC1)c1ccc2nc(-c3ccc(Oc4ccccc4Cl)cc3)[nH]c2c1 [Example 14, 2-[4-(2-Chlorophenoxy)phenyl]-3H-benzoimidazole-5-(2-cyclopropylethyl)carboxamide] | 80%
O=C(NCc1ccc(Cl)s1)c1ccc2nc(-c3ccc(C(=O)c4ccccc4C(F)(F)F)cc3)[nH]c2c1 [Example 27, 2-[4-(2-Trifluoromethylbenzoyl)phenyl]-3H-benzimidazole-5-(5-chlorothiophen-2-ylmethyl)-carboxamide] | 100%
O=C(NCc1nccs1)c1ccc2[nH]c(-c3ccc(C(=O)c4ccccc4C(F)(F)F)cc3)nc2c1 [Example 28, 2-[4-(2-Trifluoromethylbenzoyl)phenyl]-1H-benzimidazole-5-(thiazol-2-ylmethyl)-carboxamide] | 100%
CC(C)CNC(=O)c1ccc2nc(-c3ccc(C(=O)c4ccccc4C(F)(F)F)cc3)[nH]c2c1 [Example 20, 2-[4-(2-Trifluoromethylbenzoyl)phenyl]-3H-benzoimidazole-5-isobutylcarboxamide] | 77%
O=C(NCCC1CC1)c1ccc2nc(-c3ccc(Oc4ccccc4C(F)(F)F)cc3)[nH]c2c1 [Example 23, 2-[4-(2-Trifluoromethylphenoxy)phenyl]-3H-benzimidazole-5-(2-cyclopropylethyl)-carboxamide] | 96%
O=C(NCc1nccs1)c1ccc2nc(-c3ccc(Oc4ccccc4Cl)cc3)[nH]c2c1 [Example 16, 2-[4-(2-Chlorophenoxy)phenyl]-3H-benzoimidazole-5-(thiazol-2-ylmethyl)carboxamide] | 86%
O=C(NCc1ccc(Cl)s1)c1ccc2nc(-c3ccc(Oc4ccccc4)cc3)[nH]c2c1 [Example 8, 2-(4-Phenoxyphenyl)-3H-benzimidazole-5-(5-chlorothiophen-2-ylmethyl)carboxamide] | 37%
CC(C)CCNC(=O)c1ccc2nc(-c3ccc(Oc4ccccc4C(F)(F)F)cc3)[nH]c2c1 [Example 24, 2-[4-(2-Trifluoromethylphenoxy)phenyl]-3H-benzimidazole-5-(3-methylbutyl)carboxamide] | 77%
O=C(NCc1ccc(Cl)s1)c1ccc2nc(-c3ccc(Oc4ccccc4Cl)cc3)[nH]c2c1 [Example 15, 2-[4-(2-Chlorophenoxy)phenyl]-3H-benzoimidazole-5-(5-chlorothiophen-2-yl-methyl)carboxamide] | 95%
